Measured values as given in PMC7532663, “Pharmacological inhibition of mTORC1 increases CCKBR-specific tumor uptake of radiolabeled minigastrin analogue [^177Lu]Lu-PP-F11N” (Theranostics, 2020).
Where two headings read alike, the source gives them in different places.

Key:
A431/CCKBR cells = test: CellTiter 96 AQueous (MTS) proliferation assay; type: cell-based, human
[1] = system: A431/CCKBR-tumor bearing nude mice; details: co-injection of 60 nmol minigastrin
[2] = 10 μM kinase inhibitor, MTS absorbance at 570 nm, reference 650 nm, mean of triplicate

Row | Compound | Proliferation [A570] (A431/CCKBR cells; [2]) | further results
1 | CC(C)c1cnc(NC(=O)Cc2ccccc2)s1 [BML-259] | 1.09 | –
2 | CC1CNCCN1S(=O)(=O)c1cccc2cnccc12.Cl.Cl (stereo not shown) [H-7·2HCl] | 0.98 | –
3 | N#C/C(=C\c1ccc(O)c(O)c1)C(N)=O [TYRPHOSTIN 46] | 1.04 | –
4 | CO[C@@H]1[C@H](N(C)C(=O)c2ccccc2)C[C@H]2O[C@]1(C)n1c3ccccc3c3c4c(c5c6ccccc6n2c5c31)C(=O)NC4 [PKC-4 12] | 0.78 | –
5 | COc1cc(/C=C(\C#N)C(N)=O)cc(CSc2nc3ccccc3s2)c1O [AG-8 25] | 0.80 | –
6 | Oc1cc(O)cc(/C=C/c2ccc(O)c(O)c2)c1 [Piceatannol] | 1.02 | –
7 | Oc1ccc(-c2nc(-c3ccncc3)c(-c3ccc(F)cc3)[nH]2)cc1 [SB-202190] | 1.02 | –
8 | O=c1cc(N2CCOCC2)oc2c(-c3ccccc3)cccc12 [LY 294002] | 0.92 | –
9 | COc1cccc(-c2cc(=O)c3ccccc3o2)c1N [PD-98059] | 1.01 | –
10 | Cl.O=S(=O)(c1cccc2c(I)cccc12)N1CCCNCC1 [ML-7·HCl] | 0.95 | –
11 | O=C1Nc2ccccc2/C1=C1/Nc2ccccc2C1=O [Indirubin] | 1.09 | –
12 | Cn1cnc2nc(NCCO)nc(NCc3ccccc3)c21 [Iso-olomoucine] | 0.96 | –
13 | COCc1cc(O)c(O)c(O)c1-c1c(COC)cc(O)c(O)c1O [2,2',3,3',4,4'-Hexahydroxy-1,1'-biphenyl-6,6'-dimethanol dimethyl ether] | – | Proliferation [A570] (A431/CCKBR cells): 0.98
14 | CN[C@@H]1C[C@H]2O[C@@](C)([C@@H]1OC)n1c3ccccc3c3c4c(c5c6ccccc6n2c5c31)C(=O)NC4 [Staurosporine] | 0.51 | –
15 | Cc1ccc(S(=O)(=O)/C=C/C#N)cc1 [BAY 11-7082] | 1.14 | –
16 | LEEEEEAYGWMDF [minigastrin] | – | [177Lu]Lu-PP-F11N kidney uptake with blocking [1]: not affected; [177Lu]Lu-PP-F11N uptake in the tumor and stomach with blocking [1]: reduced
17 | N#CC(C#N)=Cc1ccc(O)c(O)c1 [TYRPHOSTIN 23] | 1.07 | –
18 | Cl.Cl.O=S(=O)(NCCNC/C=C/c1ccc(Br)cc1)c1cccc2cnccc12 [H-89·2HCl] | 0.97 | –
19 | CC(C)c1cc(/C=C(\C#N)C(=O)NCCCc2ccccc2)cc(C(C)C)c1O [SU1498] | 0.98 | –
20 | Cc1cc(O)c2c(=O)c3c(O)cc(O)c4c5c(O)cc(O)c6c(=O)c7c(O)cc(C)c8c1c2c(c34)c(c78)c65 [Hypericin] | 0.93 | –
21 | O=C1Cc2c([nH]c3ccc(Br)cc23)-c2ccccc2N1 [Kenpaullone] | 0.99 | –
22 | COc1cc2ncnc(Nc3cccc(Cl)c3)c2cc1OC [TYRPHOSTIN AG 1478] | 0.72 | –
23 | Cc1cc2ncc(-c3ccccc3)nc2cc1C [TYRPHOSTIN AG 1295] | 0.94 | –
24 | N#C/C(=C\c1ccc(O)c(O)c1)C(=O)NCc1ccccc1 [AG-4 90] | 1.03 | –
25 | CCCCCCCCCCCCC/C=C/[C@@H](O)[C@@H](N)CO [D-erythro-Sphingosine] | – | Proliferation [A570] (A431/CCKBR cells): 0.96

Row | Compound | Proliferation [A570] (A431/CCKBR cells; [2]) | further results
26 | C[S+]([O-])c1ccc(-c2nc(-c3ccncc3)c(-c3ccc(F)cc3)[nH]2)cc1 (stereo not shown) [SB-203580] | – | Proliferation [A570] (A431/CCKBR cells): 0.95
27 | N#C/C(=C\c1ccc(O)c(O)c1)C(=O)Nc1ccccc1 [AG-4 94] | 0.97 | –
28 | O=c1c(-c2ccc(O)cc2)coc2cc(O)cc(O)c12 [Genistein] | 0.95 | –
29 | C[C@@H](N)[C@H]1CC[C@H](C(=O)Nc2ccncc2)CC1.Cl.Cl [Y-27632·2HCl] | 1.02 | –
30 | OC[C@H]1O[C@@H](n2cnc3cc(Cl)c(Cl)cc32)[C@H](O)[C@@H]1O [5,6-dichloro-1-β-D-ribofuranosylben zimidazole] | – | Proliferation [A570] (A431/CCKBR cells): 0.99
31 | CC(C)(C)n1nc(-c2ccc(Cl)cc2)c2c(N)ncnc21 [PP2] | 0.86 | –
32 | N#CC(C#N)=Cc1cc(O)c(O)c(O)c1 [TYRPHOSTIN 25] | 1.12 | –
33 | Cl.NC(N)=NCCNS(=O)(=O)c1cccc2cnccc12 [HA-1004·HCl] | 1.05 | –
34 | Cl.NCCNS(=O)(=O)c1cccc2cnccc12 [H-9·HCl] | 1.03 | –
35 | O=P(O)(O)C(O)c1ccc2ccccc2c1 (stereo not shown) [Hydroxy-2-naphthalenylmethylphosp honic acid] | 1.00 | –
36 | Nc1ncnc2c1c(I)cn2[C@@H]1O[C@H](CO)[C@@H](O)[C@H]1O [5-Iodotubericidin] | 1.15 | –
37 | CC(C)(C)c1cc(C=C(C#N)C#N)cc(C(C)(C)C)c1O [TYRPHOSTIN 9] | 0.62 | –
38 | N#CC(=C(/N)Sc1ccccc1N)/C(C#N)=C(/N)Sc1ccccc1N [U-0126] | 0.87 | –
39 | Cc1ccc(NC(=O)c2cccc(N(C)C)c2)cc1NC(=O)c1ccc(O)cc1 [ZM 336372] | 0.87 | –
40 | O=C(O)c1cc(NCc2cc(O)ccc2O)ccc1O [2-Hydroxy-5-(2,5-dihydroxybenzylamino)benzoi c acid] | 1.01 | –
41 | O=C1Nc2ccc(I)cc2/C1=C/c1cc(Br)c(O)c(Br)c1 [GW 5074] | 0.93 | –
42 | N#C/C(=C\c1ccc(O)c(O)c1)C(N)=S [TYRPHOSTIN 47] | – | Proliferation [A570] (A431/CCKBR cells): 0.98
43 | CN(C)CCCn1cc(C2=C(c3c[nH]c4ccccc34)C(=O)NC2=O)c2ccccc21 [GF 109203X] | 0.95 | –
44 | BML-265 | 0.78 | –
45 | O=C(O)c1cc(N(Cc2ccccc2O)Cc2cc(O)ccc2O)ccc1O [Lavendustin A] | 1.15 | –
46 | CC(C)(C)c1cc(/C=C(\C#N)C(N)=S)cc(C(C)(C)C)c1O [AG-8 79] | 0.80 | –
47 | CC[C@H](CO)Nc1nc(NCc2ccccc2)c2ncn(C(C)C)c2n1 [Roscovi tine] | – | Proliferation [A570] (A431/CCKBR cells): 0.91
48 | Cn1cnc2c(NCc3ccccc3)nc(NCCO)nc21 [Olomoucine] | 0.98 | –
49 | C=CC(=O)c1ccc2ccccc2c1 [ZM 449829] | 0.98 | –
50 | COC[C@H]1OC(=O)c2coc3c2[C@@]1(C)C1=C(C3=O)[C@@H]2CCC(=O)[C@@]2(C)C[C@H]1OC(C)=O [Wortmannin] | 0.86 | –

Row | Compound | Proliferation [A570] (A431/CCKBR cells; [2]) | further results
51 | CC(C)n1cnc2c(NCc3ccccc3)nc(NCCO)nc21 [N9-isopropyl-olomoucine] | 0.93 | –
52 | O.O.O=c1c(O)c(-c2ccc(O)c(O)c2)oc2cc(O)cc(O)c12 [Quercetin·2H2O] | – | Proliferation [A570] (A431/CCKBR cells): 1.03
53 | O=c1cc(-c2ccc(O)cc2)oc2cc(O)cc(O)c12 [Apigenin] | 0.90 | –
54 | N#CC(C#N)=Cc1cc(O)c(O)c([N+](=O)[O-])c1 [TYRPHOSTIN AG 1288] | 0.97 | –
55 | CN(C)c1ccc(/C=C2\C(=O)Nc3ccccc32)cc1 [SU 4312] | 0.97 | –
56 | O=c1c(-c2ccc(O)cc2)coc2cc(O)ccc12 [Daidzein] | 0.92 | –
57 | Oc1c2ccccc2c2c3c(cccc13)N=N2 [SP 600125] | 0.77 | –
58 | COc1cc2ncc(-c3ccccc3)nc2cc1OC [AG-1296] | 0.94 | –
59 | Cc1ccc(-c2nn(C(C)(C)C)c3ncnc(N)c23)cc1 [PP1] | 0.80 | –
60 | CC(=O)c1c(O)c(C)c(O)c(Cc2c(O)c3c(c(C(=O)/C=C/c4ccccc4)c2O)OC(C)(C)C=C3)c1O [Rottle rin] | 0.64 | –
61 | CNCCNS(=O)(=O)c1cccc2cnccc12 [H-8] | 0.99 | –
62 | Cl.O=S(=O)(c1cccc2c(Cl)cccc12)N1CCCNCC1 [ML-9·HCl] | 0.94 | –
63 | CS(=O)(=O)O.Cn1cc(C2=C(c3cn(CCCSC(=N)N)c4ccccc34)C(=O)NC2=O)c2ccccc21 [Ro 31-8220 mesylate] | 0.51 | –
64 | Nc1ncc2[nH]cnc2n1 [2-Am inopurine] | 0.96 | –
65 | CCCCCCCCCCCCCCCC(=O)OC(CC(=O)[O-])C[N+](C)(C)C (racemic) [Palmitoyl-DL-carnitine] | 0.91 | –
66 | CN([C@@H](Cc1ccc(OS(=O)(=O)c2cccc3cnccc23)cc1)C(=O)N1CCN(c2ccccc2)CC1)S(=O)(=O)c1cccc2cnccc12 [KN-62] | 0.82 | –
67 | COc1ccc(S(=O)(=O)N(CCO)c2ccccc2CN(C)C/C=C/c2ccc(Cl)cc2)cc1 [KN-93] | 0.92 | –
68 | C/C(O)=C(\C#N)C(=O)Nc1cc(Br)ccc1Br [LFM-A13] | – | Proliferation [A570] (A431/CCKBR cells): 0.93
69 | CC1=C(O)C(=O)[C@@H]2O[C@@H]2C1=O [Terreic acid] | – | Proliferation [A570] (A431/CCKBR cells): 1.06
70 | N#CC(C#N)=Cc1ccc([N+](=O)[O-])c(O)c1 [AG-1 26] | 1.01 | –
71 | N#CC(C#N)=C(N)/C(C#N)=C/c1cc(O)c(O)c(O)c1 [TYRPHOSTIN 51] | 1.05 | –
72 | Cl.Cl.O=S(=O)(c1cccc2cnccc12)N1CCCNCC1 [HA-1077·2HCl] | 0.99 | –
73 | COC(=O)/C=C/c1cc(O)ccc1O [Erbstatin analog] | 1.12 | –
74 | N#CC(=Cc1ccc2[nH]ccc2c1)C(N)=C(C#N)C#N [AG-3 70] | 0.97 | –
75 | O=C1Nc2ccccc2/C1=C1/Nc2ccccc2/C1=N\O [Indirubin-3'-monooxime] | 0.87 | –
